Data on 13 molecules can be found in patent US20230312587A1, “PTERIDINONE COMPOUNDS AND USES THEREOF” (Vertex Pharmaceutical Incorporated, priority 2018, published 2023).

Some results are limits rather than exact numbers.

Assay [1] concerns Colo205-TCF/LEF-Luciferase (Luc) tumor. As to the kind of experiment: In vivo inhibition of TCF/LEF reporter activity in Colo-205 tumors. Further details: concentration or dose not given beside the values. Particulars: TCF/LEF luciferase reporter in Colo-205 tumors, nu/nu mice, oral gavage. As to the method:
Colo205-TCF/LEF-Luciferase (Luc) tumor cells were expanded in complete DMEM cell culture media [DMEM (Life Technologies, product #11960-051) media supplemented with 10% FBS (Hyclone, catalog #SH30071.03), antimycotic/antibiotic (Life Technologies, product #15240-062), and Glutamax (Life Technologies, product #35050-061)] with 1 ug/ml puromycin. After reaching confluency/high density, the loosely attached cells in media were transferred from the flask to 50 ml conical tubes. Tumor cells adhered to plastic were detached with trypsin and combined with cells in the conical tubes. The tumor cells were triturated, counted, and pelleted by centrifugation. Cell pellets were resuspended in 0.9% injectable saline (6×10^7 cells/ml). A 50 ul volume (3×10^6 cells) was injected subcutaneously in the flanks of 4-6 wk old female nu/nu mice (Charles River Laboratories). Approximately 13-16 days after implantation, tumors between 200-500 mm^3 were selected (based on caliper measurements and applying the formula […]) and randomized into groups of n=4. Mice were dosed by oral gavage with compound dissolved in 1:3:5:1 EtOH:DMSO:PEG-400:H2O at a rate of 10 ml/kg or 1:3:5:1 EtOH:DMSO:PEG-400:H2O alone (Vehicle Control). Tumors were collected from mice euthanized by CO2 inhalation and snap frozen in liquid nitrogen. Tumors were stored in a −80 degrees C. freezer until they were processed.
Tumors were thawed on ice and homogenized in cold Lysis Buffer (20 mM Tris-HCl (pH 7.5), 150 mM NaCl, 1 mM Na2EDTA, 1 mM EGTA, 1% Triton, 2.5 mM sodium pyrophosphate, 1 mM beta-glycerophosphate, 1 mM Na3VO4, 1 μg/ml leupeptin, 0.05% SDS) using a closed tissue grinder system (Fisher Scientific, Cat #02-542-09) on ice according to manufacturer's instructions. For 100 mg of tumor, 500 uL of Lysis Buffer was used. Tumor lysate was transferred to a pre-chilled microcentrifuge tube and centrifuged at 10,000×g for 10 minutes at 4 degrees C. Supernatant was transferred to a new pre-chilled microcentrifuge tube and was used immediately for analysis of protein content and luciferase activity.
Protein content of tumor lysate supernatant was determined using the BCA assay (Life Technologies Cat #23225). Luciferase activity of tumor lysate supernatant was determined by addition of Steady-Glo luminescence reagent (Promega, Cat #E2550) according to manufacturer's instructions and measurement on a Pherastar luminescence plate reader (BMG Labtech). Luciferase activity was normalized to protein content.
On the technique in general: A reporter such as luciferase makes a cellular process visible.

Assay [2] has as its system β-catenin-TCF-mediated reporter transcription activity in Colo 205 cells. As to the kind of experiment: Colo 205 reporter assay (TCF/LEF luciferase). In kind it is cell-based. Particulars: Homo sapiens, COLO 205, 5 h, Colo 205 TCF/LEF luciferase reporter, five hours after addition of compound; read-out: TCF reporter Colo205 IC50. An outline of the steps:
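Luciferase signal from a TCF/LEF-driven reporter, stably integrated in Colo 205 colon cancer cells, was measured 5 h after compound addition.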

The target of assay [3] is HEK293 membranes over-expressing WFS-1 (Homo sapiens (Human), UniProt O76024). The assay is described as follows: Radioligand displacement assay (tritiated Compound 136 probe). As to conditions: displacement of tritiated Compound 136. In kind it is binding. How it is done:
Cell pellets were re-suspended in 15 times packed cellular volume in 4° C. hypotonic lysis buffer (10 mM HEPES, pH 7.5 containing 1×Protease inhibitor, 0.5 mM EDTA and 2 mM DTT). Re-suspended cells were homogenized with 6-8 strokes in a dounce homogenizer kept on ice. Lysates were centrifuged at 500×G for 15 minutes at 4° C. without brake to decelerate rotor. Following centrifugation, remove the supernatant to a fresh tube and place on ice (Supernatant 1). Repeat the above steps on the lysed cell pellet using 0.5 the original volume of hypotonic lysis buffer and remove the 500× G supernatant (Supernatant 2) and combine with Supernatant 1. Transfer the combined supernatants to a 45-Ti ultracentrifuge tube and centrifuge at 100,000× G for 30 minutes. Following ultracentrifugation, carefully remove the supernatant and discard. Resuspend the 100,000× G pellet in cold resuspension buffer (10 mM HEPES, pH 7.5, 300 mM NaCl containing 1× Protease inhibitor, 1× EDTA and 2 mM DTT). Centrifuge sample at 500× G for 10 minutes with no brake and remove any cloudy, flocculent material. Resuspend pellet in resuspension buffer to approximately 2 mg/mL of protein concentration for use in radioligand binding assay and immunoblotting.
The binding affinities of compounds were determined by measuring the competitive displacement of a tritiated Compound 136 probe from purified HEK293 membranes over-expressing WFS-1. The data for the radioligand displacement assay are summarized in Table 47: A<0.06 μM; 0.06 μM≤B<0.6 μM; 0.6 μM≤C<3.0 μM; D≥3.0 μM.
The probe Kd was determined by titrating tritiated probe under the standard assay conditions plus and minus excess unlabeled probe and fitting the resulting data to a “One site—Total and nonspecific binding” model in Graphpad Prism, version 6.0, San Diego, CA, US. Initially, 0.25 μl of compound dissolved in DMSO at varying concentrations was dispensed to a 384 well plate. Membrane and probe were both prepared at 2× their final concentration in 1× assay buffer as described above. 25 μL of membrane was added to the wells and incubated for 10 minutes. 25 μL of diluted probe was then added to the wells. The assay was incubated for 90 minutes at room temperature. The entire assay volume was then transferred to Millipore GF/B 384-well plates pretreated with 15 μL 0.5% PEI. The filter plates were washed 3× with 75 μL 25 mM TRIS, ph7.5, 0.1% BSA and then dried overnight. Following addition of 45 μL UltimaGold scintillant, the samples were counted in a Perkin Elmer Topcount. The radioactivity remaining is a measure of bound probe. From the bound probe vs concentration of compound titration curve, the IC50 is determined by fitting the data to a standard 3 parameter IC50 model using either Graphpad Prism, version 6.0, San Diego, CA, US, or using GeneData Analyzer, Basel, Switzerland.

The subject of the next assay is Colo-205 cells. As to the kind of experiment: Calcium flux assay (FLIPR Calcium 5). Format: cell-based. Particulars: Homo sapiens, COLO 205, 0.6 h, FLIPR Calcium 5, measured over 36 minutes. As to the method:
Compounds described herein induced ER stress by causing intracellular calcium flux. Calcium flux was measured in Colo-205 cells using the FLTPR® Calcium 5 Assay Kit according to manufacter's protocol (Molecular Devices, Cat. #R8186) on a FLIPR3 system (Molecular Devices). Calcium flux is measured over 36 minutes. The Colo-205 calcium flux assay data are summarized in Table 47: A<0.6 μM; 0.6 μM≤B<2.0 μM; 2.0 μM≤C<10.0 μM; D≥10.0 μM.
A general note: Calcium flux is commonly read through the fluorescence of an indicator in the cells.

Chain of HEK293 membranes over-expressing WFS-1 (O76024 whole entry): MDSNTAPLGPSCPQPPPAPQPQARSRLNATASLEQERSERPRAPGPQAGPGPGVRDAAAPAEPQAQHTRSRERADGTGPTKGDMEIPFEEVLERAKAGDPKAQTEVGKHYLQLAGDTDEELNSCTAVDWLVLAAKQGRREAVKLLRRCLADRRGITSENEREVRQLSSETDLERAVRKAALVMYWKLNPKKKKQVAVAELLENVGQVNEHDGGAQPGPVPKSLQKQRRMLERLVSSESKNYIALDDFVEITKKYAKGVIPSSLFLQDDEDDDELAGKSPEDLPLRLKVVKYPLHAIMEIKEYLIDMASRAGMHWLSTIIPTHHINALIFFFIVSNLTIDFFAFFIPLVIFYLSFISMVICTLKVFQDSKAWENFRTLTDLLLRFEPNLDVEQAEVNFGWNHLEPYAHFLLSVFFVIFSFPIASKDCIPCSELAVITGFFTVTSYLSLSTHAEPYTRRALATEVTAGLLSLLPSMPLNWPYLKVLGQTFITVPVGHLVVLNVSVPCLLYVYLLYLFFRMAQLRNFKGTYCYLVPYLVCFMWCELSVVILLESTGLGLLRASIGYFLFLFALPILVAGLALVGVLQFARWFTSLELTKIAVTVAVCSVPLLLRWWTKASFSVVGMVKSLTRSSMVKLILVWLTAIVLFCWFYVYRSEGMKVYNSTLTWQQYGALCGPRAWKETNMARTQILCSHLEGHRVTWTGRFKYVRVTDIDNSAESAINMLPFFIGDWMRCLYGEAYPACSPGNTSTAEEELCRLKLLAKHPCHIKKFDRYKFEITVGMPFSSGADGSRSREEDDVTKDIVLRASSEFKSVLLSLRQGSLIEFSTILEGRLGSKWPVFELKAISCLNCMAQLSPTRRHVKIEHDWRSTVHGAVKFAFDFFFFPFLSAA

`COCC[C@H]1C(=O)Nc2c(C)nc(NCc3cnn(Cc4cc(C(F)(F)F)nn4C)c3)nc2N1C` [Compound 678, (S)-7-(2-methoxyethyl)-4,8-dimethyl-2-(((1-((1-methyl-3-(trifluoromethyl)-1H-pyrazol-5-yl)methyl)-1H-pyrazol-4-yl)methyl)amino)-7,8-dihydropteridin-6(5H)-one]: the “Percent Remaining Activity at 8 hrs after Dosing” value in assay [1] was 75%. Also, the IC50 in assay [2] was under 300 nM.
Consider `CC[C@H]1C(=O)Nc2c(C)nc(N[C@H]3C[C@H](Oc4ccc(C(F)(F)F)nc4)C3)nc2N1C` [Compound 686, (S)-7-ethyl-4,8-dimethyl-2-((trans-3-((6-(trifluoromethyl)pyridin-3-yl)oxy)cyclobutyl)amino)-7,8-dihydropteridin-6(5H)-one], for which the concentration for half-maximal inhibition (IC50) in assay [3] was under 60 nM; in assay [2], under 300 nM. In addition, in the assay on Colo-205 cells, the EC50 was under 600 nM.
For the molecule `Cc1nc(N[C@H]2C[C@H](Oc3cc(F)c(F)c(F)c3)C2)nc2c1NC(=O)[C@H](CO)N2C` [Compound 677, (S)-7-(hydroxymethyl)-4,8-dimethyl-2-((trans-3-(3,4,5-trifluorophenoxy)cyclobutyl)amino)-7,8-dihydropteridin-6(5H)-one], the concentration for half-maximal inhibition (IC50) in assay [3] is 60 to 600 nM; in assay [2], under 300 nM.
For the molecule `Cc1nc(N[C@@H](C)c2cnn(Cc3ccc(C(F)(F)F)nc3)c2)nc2c1NC(=O)[C@H](C)N2C` [Compound 216, (7S)-4,7,8-Trimethyl-2-(((S)-1-(1-((6-(trifluoromethyl)pyridin-3-yl)methyl)-1H-pyrazol-4-yl)ethyl)amino)-7,8-dihydropteridin-6(5H)-one], the figures for the IC50 in assay [3] and in assay [2] were at least 3000 nM and at least 5000 nM, respectively. The half-maximal effective concentration (EC50) in the assay with Colo-205 cells was at least 10000 nM.
For `Cc1nc(N[C@H]2C[C@@H](Nc3ccc(C#N)cn3)C2)nc2c1NC(=O)[C@H](C(C)C)N2C` [Compound 716, 6-((cis-3-(((S)-7-isopropyl-4,8-dimethyl-6-oxo-5,6,7,8-tetrahydropteridin-2-yl)amino)cyclobutyl)amino)nicotinonitrile], in that order: under 60 nM, under 300 nM and 600 to 2000 nM.
Turning to `CO[C@H](C)[C@H]1C(=O)Nc2c(C)nc(N[C@H]3C[C@H](Oc4ccc(C(F)(F)F)nc4)C3)nc2N1C` [Compound 684, (S)-7-((R)-1-methoxyethyl)-4,8-dimethyl-2-((trans-3-((6-(trifluoromethyl)pyridin-3-yl)oxy)cyclobutyl)amino)-7,8-dihydropteridin-6(5H)-one], the IC50 in assay [3] is under 60 nM; in assay [2], under 300 nM. Also, the EC50 in the assay with Colo-205 cells was under 600 nM.
As to `Cc1nc(N[C@H]2C[C@@H](CNc3cnc(C(F)(F)F)cn3)C2)nc2c1NC(=O)[C@H](C(C)C)N2C` [Compound 711, (S)-7-isopropyl-4,8-dimethyl-2-((cis-3-(((5-(trifluoromethyl)pyrazin-2-yl)amino)methyl)cyclobutyl)amino)-7,8-dihydropteridin-6(5H)-one], the IC50 is under 60 nM in assay [3] and under 300 nM in assay [2]. Also, the EC50 in the assay on Colo-205 cells is under 600 nM.
On to `Cc1nc(N[C@H]2C[C@H](Oc3ccc(C(F)(F)F)nc3)C2)nc2c1NC(=O)[C@H](C(C)C)N2C` [Compound 685, (S)-7-isopropyl-4,8-dimethyl-2-((trans-3-((6-(trifluoromethyl)pyridin-3-yl)oxy)cyclobutyl)amino)-7,8-dihydropteridin-6(5H)-one], for which the 50% inhibitory concentration (IC50) was under 60 nM in assay [3] and under 300 nM in assay [2]. In addition, the 50% effective concentration (EC50) in the assay with Colo-205 cells was under 600 nM.
For `Cc1nc(N[C@H]2C[C@@H](Nc3ncc(C#N)cn3)C2)nc2c1NC(=O)[C@H](C(C)C)N2C` [Compound 717, 2-((cis-3-(((S)-7-isopropyl-4,8-dimethyl-6-oxo-5,6,7,8-tetrahydropteridin-2-yl)amino)cyclobutyl)amino)pyrimidine-5-carbonitrile], in that order: 60 to 600 nM, 1000 to 5000 nM and 2000 to 10000 nM.
In the case of `Cc1nc(N[C@H]2C[C@@H](Cn3nccc3C(F)(F)F)C2)nc2c1NC(=O)[C@H](COC(C)(C)C)N2C` [Compound 723, (S)-7-(tert-butoxymethyl)-4,8-dimethyl-2-((cis-3-((5-(trifluoromethyl)-1H-pyrazol-1-yl)methyl)cyclobutyl)amino)-7,8-dihydropteridin-6(5H)-one], the half-inhibitory concentration (IC50) in assay [3] is 60 to 600 nM; in assay [2] it was under 300 nM. Besides, in the assay on Colo-205 cells, the EC50 is 600 to 2000 nM.
Turning to `Cc1nc(NCc2cnn(Cc3cccc(C(F)(F)F)n3)c2)nc2c1NC(=O)[C@H](C)N2C` [Compound 184, (7S)-4,7,8-trimethyl-2-(((1-((6-(trifluoromethyl)pyridin-2-yl)methyl)-1H-pyrazol-4-yl)methyl)amino)-7,8-dihydropteridin-6(5H)-one], the IC50 in assay [2] was under 300 nM.
For `CCN1C(=O)[C@H](CCO)N(CC)c2nc(NCc3cnn(Cc4ccc(F)cc4)c3)ncc21` [Compound 38, (7S)-5,8-diethyl-2-(((1-(4-fluorobenzyl)-1H-pyrazol-4-yl)methyl)amino)-7-(2-hydroxyethyl)-7,8-dihydropteridin-6(5H)-one], the 50% inhibitory concentration (IC50) in assay [2] was under 300 nM.
In the case of `Cc1nc(N[C@H]2C[C@@H](COc3ccc(F)nc3)C2)nc2c1NC(=O)[C@H](C(C)C)N2C` [Compound 574, (S)-2-((cis-3-(((6-fluoropyridin-3-yl)oxy)methyl)cyclobutyl)amino)-7-isopropyl-4,8-dimethyl-7,8-dihydropteridin-6(5H)-one], the IC50 in assay [2] was under 300 nM.

In general, IC50 refers to the concentration needed to halve the response being measured. The EC50 is the concentration at which the effect is half-maximal.
